Values quoted from earlier work, collected in patent US20100286187A1, “METHOD OF PREDICTING SURVIVAL OF A NON-SMALL-CELL LUNG CANCER PATIENT TO A CHEMOTHERAPEUTIC TREATMENT” (PANGAEA BIOTECH S.A., priority 2006, published 2010).

Legend:
[1] = tested on: non-small cell lung cancer (NSCLC) patients; conditions: single agent, previously untreated NSCLC patients
[2] = tested on: non-small cell lung cancer (NSCLC); conditions: randomized study, per arm

Compound	Response rates [1]	Median survival [2]
CC(=O)O[C@@]12CO[C@@H]1C[C@H](O)[C@@]1(C)C(=O)[C@H](O)C3=C(C)[C@@H](OC(=O)[C@H](O)[C@@H](NC(=O)OC(C)(C)C)c4ccccc4)C[C@@](O)([C@@H](OC(=O)c4ccccc4)[C@H]21)C3(C)C [Docetaxel]	21-38%	–
paclitaxel/carboplatin	–	8.2 months
